According to patent publication US20240092761A1, “QUINAZOLINE COMPOUNDS AND METHODS OF USE” (IAMBIC THERAPEUTICS, INC., priority 2022, published 2024):

Assays:
CDK1/Cyclin B1 = CDK1/Cyclin B1 (Homo sapiens (Human), UniProt P06493); test: CDK1/Cyclin B1 ADP-Glo Kinase Assay; assay type: biochemical; conditions: 80 uM ATP
Procedure, shortened: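 Luminescent ADP-Glo detection of ADP produced over 90 min at room temperature. Enzyme complex 4.917 nM, pre-exposed 30 min to inhibitor; ATP 80 µM (near Km 78.6 µM), substrate 0.75 µM, HEPES pH 7.5, 2% DMSO. Fractional velocity fitted to 4-parameter IC50 equation.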

[1] = molecular target: CDK2/Cyclin E1 full length (Homo sapiens (Human), UniProt P24941); test: CDK2/Cyclin E1 Full Length ADP-Glo Kinase Assay; assay type: biochemical; conditions: 20 uM ATP, read-out: CDK2/ CyclinE1 IC50
Procedure, shortened: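 ADP-Glo luminescence read-out of ADP formed by 0.328 nM wild-type full-length CDK2/Cyclin E1, 90 min at room temperature with 0.75 uM substrate and 20 uM ATP (Km 64.78 uM), after 30 min enzyme–inhibitor pre-incubation; 50 mM HEPES pH 7.5, 2% DMSO. Four-parameter IC50 fit.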

CDK4/Cyclin D1 = CDK4/Cyclin D1 (Homo sapiens (Human), UniProt P11802); test: CDK4/Cyclin D1 Mobility Shift Assay (MSA); assay type: biochemical; conditions: 0.2 mM ATP, read-out: CDK4/ CyclinD1 MSA IC50
Procedure, shortened: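 Reaction: 2.5 nM enzyme, 0.2 mM ATP, 1.5 µM 5-FAM-Dyrktide, 10 mM MgCl2, 2 mM DTT, 2% DMSO, 50 mM HEPES pH 7.5. Inhibitor was preincubated 30 min at 22 °C, then the reaction ran 180 min before EDTA stop. Microfluidic separation of substrate and product gave % conversion, and IC50 came from a 4-parameter fit.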

CDK6/Cyclin D3 = CDK6/Cyclin D3 (Homo sapiens (Human), UniProt Q00534); test: CDK6/Cyclin D3 ADP-Glo Kinase Assay; assay type: biochemical; conditions: 100 uM ATP, read-out: CDK6/ CyclinD3 IC50
Procedure, shortened: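 Luminescent ADP-Glo read-out of ADP produced, used to fit IC50 (4-parameter equation on fractional velocity against inhibitor concentration). Kinase reaction: enzyme and inhibitor together 30 min, then ATP-containing substrate added for 90 min, all at room temperature.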

MCF-7 cells = test: Cell Growth Inhibition, MCF-7 (CellTiterGlo, 6 days); assay type: cell-based; conditions: MCF-7, 6-day treatment, CellTiterGlo 2.0
Procedure, shortened: (§1)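 Compounds were run in half-log series, usually 10–10,000 nM, with 500 cells/well of OVCAR-3 or MCF-7 in RPMI plus 10% FBS. After a 6-day culture at 37 °C, viability was read by CellTiterGlo luminescence. Inhibition relative to control was fitted (four-parameter, variable slope) for IC50.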

OVCAR-3 cells = test: Cell Growth Inhibition, OVCAR-3 (CellTiterGlo, 6 days); assay type: cell-based; conditions: OVCAR-3, 6-day treatment, CellTiterGlo 2.0
Procedure, shortened: as §1

Chain of CDK1/Cyclin B1 (P06493 whole entry): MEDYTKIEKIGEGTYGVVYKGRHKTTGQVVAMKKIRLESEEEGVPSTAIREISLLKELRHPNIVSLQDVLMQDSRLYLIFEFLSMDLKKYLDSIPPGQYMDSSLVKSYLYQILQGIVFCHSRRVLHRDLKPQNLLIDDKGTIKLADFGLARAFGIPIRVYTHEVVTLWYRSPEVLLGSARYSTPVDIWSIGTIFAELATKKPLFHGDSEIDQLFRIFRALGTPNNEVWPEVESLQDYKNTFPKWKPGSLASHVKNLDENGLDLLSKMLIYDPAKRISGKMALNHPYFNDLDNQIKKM
Chain of CDK1/Cyclin B1 (P14635 whole entry partner): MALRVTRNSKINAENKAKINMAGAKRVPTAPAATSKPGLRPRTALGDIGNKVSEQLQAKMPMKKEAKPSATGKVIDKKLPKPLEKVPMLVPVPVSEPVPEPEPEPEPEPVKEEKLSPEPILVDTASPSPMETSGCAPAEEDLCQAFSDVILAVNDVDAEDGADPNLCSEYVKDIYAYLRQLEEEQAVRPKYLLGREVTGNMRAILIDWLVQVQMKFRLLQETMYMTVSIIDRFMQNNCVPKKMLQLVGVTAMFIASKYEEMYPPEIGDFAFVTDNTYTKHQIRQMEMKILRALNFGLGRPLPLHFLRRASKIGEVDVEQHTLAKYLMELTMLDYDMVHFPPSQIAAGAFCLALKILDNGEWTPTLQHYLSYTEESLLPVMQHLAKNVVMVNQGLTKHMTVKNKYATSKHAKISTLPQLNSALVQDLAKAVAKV
Chain of CDK4/Cyclin D1 (P11802 whole entry): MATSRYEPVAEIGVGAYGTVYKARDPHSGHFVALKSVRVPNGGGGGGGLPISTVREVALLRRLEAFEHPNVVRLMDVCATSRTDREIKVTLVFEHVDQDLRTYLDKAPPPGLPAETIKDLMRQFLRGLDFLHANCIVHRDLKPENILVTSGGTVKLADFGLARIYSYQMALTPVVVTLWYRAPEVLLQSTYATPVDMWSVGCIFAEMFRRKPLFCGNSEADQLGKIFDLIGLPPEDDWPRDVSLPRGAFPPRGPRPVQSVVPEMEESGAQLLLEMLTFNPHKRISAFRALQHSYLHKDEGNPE
Chain of CDK4/Cyclin D1 (P24385 whole entry partner): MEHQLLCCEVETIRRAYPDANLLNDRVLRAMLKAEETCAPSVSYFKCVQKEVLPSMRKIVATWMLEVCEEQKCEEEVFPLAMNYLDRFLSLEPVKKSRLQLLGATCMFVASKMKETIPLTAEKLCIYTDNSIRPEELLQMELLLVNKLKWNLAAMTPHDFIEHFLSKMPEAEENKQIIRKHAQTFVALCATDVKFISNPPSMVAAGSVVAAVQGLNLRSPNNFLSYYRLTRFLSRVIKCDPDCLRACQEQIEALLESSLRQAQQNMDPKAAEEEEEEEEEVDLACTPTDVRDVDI
Chain of CDK6/Cyclin D3 (Q00534 whole entry): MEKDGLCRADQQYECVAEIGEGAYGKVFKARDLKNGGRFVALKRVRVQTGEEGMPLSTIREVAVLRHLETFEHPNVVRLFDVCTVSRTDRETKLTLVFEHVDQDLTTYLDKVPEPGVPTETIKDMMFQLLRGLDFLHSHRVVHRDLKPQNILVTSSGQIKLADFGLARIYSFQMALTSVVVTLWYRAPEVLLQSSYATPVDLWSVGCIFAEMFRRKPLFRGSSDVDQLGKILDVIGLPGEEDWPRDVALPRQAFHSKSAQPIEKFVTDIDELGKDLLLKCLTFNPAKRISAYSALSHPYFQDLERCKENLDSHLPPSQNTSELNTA
Chain of CDK6/Cyclin D3 (P30281 whole entry partner): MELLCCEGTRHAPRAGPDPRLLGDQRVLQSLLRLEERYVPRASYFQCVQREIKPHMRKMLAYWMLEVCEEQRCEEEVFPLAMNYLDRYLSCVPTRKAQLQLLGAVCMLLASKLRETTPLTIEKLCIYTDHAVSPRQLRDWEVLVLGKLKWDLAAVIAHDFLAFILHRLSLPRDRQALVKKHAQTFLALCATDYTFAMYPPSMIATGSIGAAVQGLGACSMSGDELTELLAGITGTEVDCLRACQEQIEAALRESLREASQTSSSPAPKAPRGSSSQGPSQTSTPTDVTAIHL

Row | IC50 (CDK1/Cyclin B1) [nM] | IC50 [1] [nM] | IC50 (CDK4/Cyclin D1) [nM] | IC50 (CDK6/Cyclin D3) [nM] | IC50 (MCF-7 cells) [nM] | IC50 (OVCAR-3 cells) [nM] | IC50 (MCF-7 cells; Homo sapiens, MCF7, 144 h) [nM] | IC50 (OVCAR-3 cells; Homo sapiens, 144 h) [nM] | SMILES
1 | > 2000 | > 2000 | < 200 | 200 to 500 | > 2000 | > 2000 |  |  | CN1C[C@@H]2[C@H](C1)[C@H]2Nc1ncc2cc(C(F)F)cc(N3CCC4(C3)CS(=O)(=O)C4)c2n1 [Example 54, 6-(6-(difluoromethyl)-2-(((1R,5S,6s)-3-methyl-3-azabicyclo[3.1.0]hexan-6-yl)amino)quinazolin-8-yl)-2-thia-6-azaspiro[3.4]octane 2,2-dioxide]
2 | > 2000 | 500 to 2000 | 200 to 500 | 500 to 2000 |  |  | > 2000 | > 2000 | CN1CC2(CCC1=O)CCN(c1cccc3cnc(NC4CCN(S(C)(=O)=O)CC4)nc13)C2 (stereo not drawn) [Example 55, 7-methyl-2-(2-((1-(methylsulfonyl)piperidin-4-yl)amino)quinazolin-8-yl)-2,7-diazaspiro[4.5]decan-8-one]
